Laboratory results reported in patent publication US6737383B1, “Herbicidal oxadiazolidines” (priority 1999, dated 2004).

What was measured:
purple nutsedge = assay: Test B pre/postemergence purple nutsedge; type: in vivo, Cyperus rotundus
Method in brief: (§1)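 Response is a visual 0-to-10 score relative to untreated plants, where 0 means no effect and 10 means complete control, taken twelve to sixteen days after application. Treatments went onto soil at planting and onto foliage of 1- to 4-leaf plants, using a surfactant-containing non-phytotoxic solvent.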

cocklebur = assay: Test B pre/postemergence cocklebur; type: in vivo, Xanthium strumarium
Method in brief: as §1

bedstraw = assay: Test B pre/postemergence bedstraw; type: in vivo, Galium aparine; details: Preemergence
Method in brief: as §1

giant foxtail = assay: Test B pre/postemergence giant foxtail; type: in vivo, Setaria faberii
Method in brief: as §1

surinam grass = assay: Test B pre/postemergence surinam grass; type: in vivo, Brachiaria decumbens
Method in brief: as §1

pigweed = assay: Test B pre/postemergence pigweed; type: in vivo, Amaranthus retroflexus
Method in brief: as §1

sugar beet = assay: Test B pre/postemergence sugar beet; type: in vivo, Beta vulgaris
Method in brief: as §1

morningglory = assay: Test B pre/postemergence morningglory; type: in vivo, Ipomoea hederacea
Method in brief: as §1

velvetleaf = assay: Test B pre/postemergence velvetleaf; type: in vivo, Abutilon theophrasti
Method in brief: as §1

soybean = assay: Test B pre/postemergence soybean; type: in vivo, Glycine max
Method in brief: as §1

wild oat = assay: Test B pre/postemergence wild oat; type: in vivo, Avena fatua
Method in brief: as §1

crabgrass = assay: Test B pre/postemergence crabgrass; type: in vivo, Digitaria sanguinalis
Method in brief: as §1

rape = assay: Test B pre/postemergence rape; type: in vivo, Brassica napus
Method in brief: as §1

blackgrass = assay: Test B pre/postemergence blackgrass; type: in vivo, Alopecurus myosuroides
Method in brief: as §1

wheat = assay: Test B pre/postemergence wheat; type: in vivo, Triticum aestivum
Method in brief: as §1

corn = assay: Test B pre/postemergence corn; type: in vivo, Zea mays
Method in brief: as §1

[1] = Postemergence, Rate 62 g/ha, scale of 0 to 10, 0 is no effect, 10 is complete control
[2] = Postemergence, Rate 125 g/ha, scale 0 to 10, 0 is no effect, 10 is complete control
[3] = Postemergence, Rate 500 g/ha, scale 0 to 10, 0 is no effect, 10 is complete control
[4] = Preemergence, Rate 62 g/ha, scale 0 to 10 (0 no effect, 10 complete control)
[5] = Preemergence, Rate 125 g/ha, scale 0 to 10, 0 is no effect, 10 is complete control
[6] = Preemergence, Rate 500 g/ha, scale of 0 to 10 where 0 is no effect and 10 is complete control
[7] = Rate 250 g/ha, Postemergence, scale of 0 to 10 where 0 is no effect and 10 is complete control

COCCOCn1c(=O)on(C(=O)N(c2ccc(Cl)cc2)C(C)C)c1=O [Compound 535] was tested, and the “Nutsedge plant response rating” value (purple nutsedge; [1]) was 0, the “Nutsedge plant response rating” value (purple nutsedge; [2]) was 0 and the “Plant response rating, Nutsedge” value (purple nutsedge; [3]) was 0. For the same molecule, the “Nutsedge plant response rating” value (purple nutsedge; [4]) was 0, the “Nutsedge plant response rating” value (purple nutsedge; [5]) was 0 and the “Nutsedge plant response rating (0 to 10 scale)” value (purple nutsedge; Preemergence, Rate 250 g/ha) was 0. For the same molecule, the “Nutsedge plant response rating” value (purple nutsedge; [6]) was 0, the “Plant response rating, Nutsedge” value (purple nutsedge; [7]) was 0 and the “Cocklebur plant response rating” value (cocklebur; [1]) was 0. The “Cocklebur plant response rating” value (cocklebur; [2]) was 0, the “Plant response rating, Cocklebur” value (cocklebur; [3]) was 0 and the “Cocklebur plant response rating” value (cocklebur; [4]) was 0. For the same molecule, the “Cocklebur plant response rating” value (cocklebur; [5]) was 0, the “Cocklebur plant response rating (0 to 10 scale)” value (cocklebur; Preemergence, Rate 250 g/ha) was 0 and the “Cocklebur plant response rating” value (cocklebur; [6]) was 0. The “Plant response rating, Cocklebur” value (cocklebur; [7]) was 0, the “Bedstraw plant response rating” value (bedstraw; Rate 62 g/ha, scale 0 to 10 (0 no effect, 10 complete control)) was 0 and the “Bedstraw plant response rating” value (bedstraw; Rate 125 g/ha, scale 0 to 10, 0 is no effect, 10 is complete control) was 0. The “Bedstraw plant response rating” value (bedstraw; Rate 500 g/ha, scale of 0 to 10 where 0 is no effect and 10 is complete control) was 0, the “Giant foxtail plant response rating” value (giant foxtail; [1]) was 5 and the “Plant response rating, Giant foxtail” value (giant foxtail; [3]) was 5. The “Giant foxtail plant response rating” value (giant foxtail; [4]) was 10, the “Giant foxtail plant response rating” value (giant foxtail; [5]) was 10 and the “Giant foxtail plant response rating (0 to 10 scale)” value (giant foxtail; Preemergence, Rate 250 g/ha) was 10. For the same molecule, the “Giant foxtail plant response rating” value (giant foxtail; [6]) was 10, the “Plant response rating, Giant foxtail” value (giant foxtail; [7]) was 5 and the “B. signalgrass plant response rating” value (surinam grass; [1]) was 0. For the same molecule, the “B. signalgrass plant response rating” value (surinam grass; [2]) was 0, the “Plant response rating, B. signalgrass” value (surinam grass; [3]) was 3 and the “B. signalgrass plant response rating” value (surinam grass; [5]) was 0. For the same molecule, the “B. signalgrass plant response rating (0 to 10 scale, 0 is no effect, 10 is complete control)” value (surinam grass; Preemergence, Rate 250 g/ha) was 0, the “B. signalgrass plant response rating” value (surinam grass; [6]) was 0 and the “Plant response rating, B. signalgrass” value (surinam grass; [7]) was 0. The “Redroot pigweed plant response rating” value (pigweed; [1]) was 0, the “Redroot pigweed plant response rating” value (pigweed; [2]) was 0 and the “Plant response rating, Redroot pigweed” value (pigweed; [3]) was 0. For the same molecule, the “Redroot pigweed plant response rating” value (pigweed; [4]) was 2, the “Redroot pigweed plant response rating” value (pigweed; [5]) was 2 and the “Redroot pigweed plant response rating (0 to 10 scale)” value (pigweed; Preemergence, Rate 250 g/ha) was 4. For the same molecule, the “Redroot pigweed plant response rating” value (pigweed; [6]) was 4, the “Plant response rating, Redroot pigweed” value (pigweed; [7]) was 0 and the “Sugarbeets plant response rating” value (sugar beet; [1]) was 0. The “Sugarbeets plant response rating” value (sugar beet; [2]) was 0, the “Plant response rating, Sugarbeets” value (sugar beet; [3]) was 0 and the “Sugarbeets plant response rating” value (sugar beet; [4]) was 4. For the same molecule, the “Sugarbeets plant response rating” value (sugar beet; [5]) was 4, the “Sugarbeets plant response rating (0 to 10 scale)” value (sugar beet; Preemergence, Rate 250 g/ha) was 5 and the “Plant response rating, Sugarbeets” value (sugar beet; [7]) was 0. The “Morningglory plant response rating” value (morningglory; [1]) was 4, the “Morningglory plant response rating” value (morningglory; [2]) was 2 and the “Plant response rating, Morningglory” value (morningglory; [3]) was 3. The “Morningglory plant response rating” value (morningglory; [4]) was 0, the “Morningglory plant response rating” value (morningglory; [5]) was 0 and the “Morningglory plant response rating (0 to 10 scale)” value (morningglory; Preemergence, Rate 250 g/ha) was 0. For the same molecule, the “Morningglory plant response rating” value (morningglory; [6]) was 2, the “Plant response rating, Morningglory” value (morningglory; [7]) was 2 and the “Velvetleaf plant response rating” value (velvetleaf; [1]) was 0. The “Velvetleaf plant response rating” value (velvetleaf; [2]) was 0, the “Plant response rating, Velvetleaf” value (velvetleaf; [3]) was 2 and the “Velvetleaf plant response rating” value (velvetleaf; [4]) was 0. For the same molecule, the “Velvetleaf plant response rating” value (velvetleaf; [5]) was 0, the “Velvetleaf plant response rating (0 to 10 scale)” value (velvetleaf; Preemergence, Rate 250 g/ha) was 2 and the “Plant response rating, Velvetleaf” value (velvetleaf; [7]) was 0. The “Soybean plant response rating” value (soybean; [1]) was 3, the “Soybean plant response rating” value (soybean; [2]) was 6 and the “Plant response rating, Soybean” value (soybean; [3]) was 8. For the same molecule, the “Soybean plant response rating” value (soybean; [4]) was 0, the “Soybean plant response rating” value (soybean; [5]) was 0 and the “Soybean plant response rating (0 to 10 scale)” value (soybean; Preemergence, Rate 250 g/ha) was 0. For the same molecule, the “Soybean plant response rating” value (soybean; [6]) was 0, the “Plant response rating, Soybean” value (soybean; [7]) was 6 and the “Wild oats plant response rating” value (wild oat; [1]) was 0. For the same molecule, the “Wild oats plant response rating” value (wild oat; [2]) was 0, the “Plant response rating, Wild oats” value (wild oat; [3]) was 2 and the “Wild oats plant response rating” value (wild oat; [4]) was 0. The “Wild oats plant response rating” value (wild oat; [5]) was 0, the “Wild oats plant response rating (0 to 10 scale)” value (wild oat; Preemergence, Rate 250 g/ha) was 0 and the “Wild oats plant response rating” value (wild oat; [6]) was 0. For the same molecule, the “Plant response rating, Wild oats” value (wild oat; [7]) was 0, the “Crabgrass plant response rating” value (crabgrass; [1]) was 5 and the “Plant response rating, Crabgrass” value (crabgrass; [3]) was 6. For the same molecule, the “Crabgrass plant response rating” value (crabgrass; [4]) was 10, the “Crabgrass plant response rating” value (crabgrass; [5]) was 10 and the “Crabgrass plant response rating (0 to 10 scale)” value (crabgrass; Preemergence, Rate 250 g/ha) was 10. For the same molecule, the “Crabgrass plant response rating” value (crabgrass; [6]) was 10, the “Plant response rating, Crabgrass” value (crabgrass; [7]) was 5 and the “Rape plant response rating” value (rape; [1]) was 0. For the same molecule, the “Rape plant response rating” value (rape; [2]) was 0, the “Plant response rating, Rape” value (rape; [3]) was 0 and the “Rape plant response rating” value (rape; [4]) was 2. For the same molecule, the “Rape plant response rating” value (rape; [5]) was 2, the “Rape plant response rating (0 to 10 scale)” value (rape; Preemergence, Rate 250 g/ha) was 2 and the “Rape plant response rating” value (rape; [6]) was 3. The “Plant response rating, Rape” value (rape; [7]) was 0, the “Blackgrass plant response rating” value (blackgrass; [1]) was 0 and the “Blackgrass plant response rating” value (blackgrass; [2]) was 4. The “Plant response rating, Blackgrass” value (blackgrass; [3]) was 8, the “Blackgrass plant response rating” value (blackgrass; [5]) was 0 and the “Blackgrass plant response rating (0 to 10 scale)” value (blackgrass; Preemergence, Rate 250 g/ha) was 0. The “Blackgrass plant response rating” value (blackgrass; [6]) was 0, the “Plant response rating, Blackgrass” value (blackgrass; [7]) was 7 and the “Wheat plant response rating” value (wheat; [1]) was 0. For the same molecule, the “Wheat plant response rating” value (wheat; [2]) was 0, the “Plant response rating, Wheat” value (wheat; [3]) was 2 and the “Wheat plant response rating” value (wheat; [4]) was 0. For the same molecule, the “Wheat plant response rating” value (wheat; [5]) was 0, the “Wheat plant response rating (0 to 10 scale)” value (wheat; Preemergence, Rate 250 g/ha) was 0 and the “Wheat plant response rating” value (wheat; [6]) was 0. For the same molecule, the “Plant response rating, Wheat” value (wheat; [7]) was 0, the “Corn plant response rating” value (corn; [1]) was 0 and the “Corn plant response rating” value (corn; [2]) was 0. The “Plant response rating, Corn” value (corn; [3]) was 0, the “Corn plant response rating” value (corn; [4]) was 0 and the “Corn plant response rating” value (corn; [5]) was 0. The “Corn plant response rating (0 to 10 scale)” value (corn; Preemergence, Rate 250 g/ha) was 0, the “Corn plant response rating” value (corn; [6]) was 2 and the “Plant response rating, Corn” value (corn; [7]) was 0.
